≈ marks a conversion by molar mass, not a printed value. Numbered stars: 1 amine (or outer) side, 2 acyl side, 3 side chain; on linkers, the order of the positions; unused ones are H or OH. Bridge positions count the residues as written; N and C are the ends. Square brackets hold non-standard residues; d marks the D form. Peptide text beside a SMILES is read from it. * marks the point of attachment. Tetradecanoyl(10R,12S-Me2) = CC[C@H](C)C[C@H](C)CCCCCCCCC(=O)*; Orn(4R-OH) = O=C([C@H](C[C@@H](O)CN[*:3])N[*:1])[*:2]; hTyr(3R-OH) = N[C@H](C(=O)O)[C@H](O)Cc1ccc(O)cc1; X1 = COC(=O)C[C@@H](O)[C@H](N[*:1])C(=O)[*:2]; X2 = O=C(O)C[C@@H](O)[C@H](N[*:1])C(=O)[*:2]; Pro(3S-OH) = O=C(O)[C@H]1NCC[C@@H]1O; Hyp = O=C(O)[C@@H]1C[C@@H](O)CN1
Key:
[1] = tested on: C. albicans MY 1028; assay type: cell-based, Candida albicans; settings: MY 1028, 24 h
[2] = tested on: C. albicans MY 1055; assay type: cell-based, Candida albicans; settings: MY 1055, 24 h
Description: The compounds of the present invention are active against many fungi and particularly against Candida species. The antifungal properties maybe illustrated with the minimum fungicidal concentration (MFC) determination against certain Candida organisms in a microbroth dilution assay carried out in a Yeast Nitrogen Base (Difco) medium with 1% dextrose (YNBD). In separate assays, the compounds (all Seq. ID No. 1) were solubilized in 10% dimethyl sulfoxide (DMSO) and diluted to 2560 μg/ml. The solution was then diluted to 256 μg/ml in YNBD and dispensed via a multichannel pipetter into the top row of a 96-well plate (each well containing 0.15 ml of YNBD), resulting in a drug concentration of 128 μg/ml. Compounds in the top row were diluted 2-fold down the columns yielding final drug concentrations ranging from 128-0.06 μg/ml. All tests were performed in duplicate. A four-hour broth culture of C. albicans MY 1055 was adjusted using a spectrophotometer at 530 nm to equal a 0.5 McFarland Standard. This yields a cell concentration of 1-5×10^6 colony forming units (CFU)/ml. The 96-well microplates were inoculated using an MIC-2000 (Dynatech), which delivers […] per well, yielding a final inoculum per well of 1.5-7.5×10^3 cells. One column per tray containing drug-free growth control wells was included. […]

SMILES | MFC C. albicans MY 1028 [1] [µg/mL] | MFC C. albicans MY 1055 [2] [µg/mL]
CC[C@H](C)C[C@H](C)CCCCCCCCC(=O)N[C@H]1C[C@@H](O)CNC(=O)[C@@H]2[C@@H](O)CCN2C(=O)[C@H]([C@H](O)CC(=O)OC)NC(=O)[C@H]([C@H](O)Cc2ccc(O)cc2)NC(=O)[C@@H]2C[C@@H](O)CN2C(=O)[C@H]([C@@H](C)O)NC1=O [methyl ester] ({Tetradecanoyl(10R,12S-Me2)}-[Orn(4R-OH)]T[Hyp][hTyr(3R-OH)][X1][Pro(3S-OH)]; lactam 1-C) | 0.25 (≈ 0.238 µM) | 0.5 (≈ 0.477 µM)
CC[C@H](C)C[C@H](C)CCCCCCCCC(=O)N[C@H]1C[C@@H](O)CNC(=O)[C@@H]2[C@@H](O)CCN2C(=O)[C@H]([C@H](O)CC(=O)O)NC(=O)[C@H]([C@H](O)Cc2ccc(O)cc2)NC(=O)[C@@H]2C[C@@H](O)CN2C(=O)[C@H]([C@@H](C)O)NC1=O [acid] ({Tetradecanoyl(10R,12S-Me2)}-[Orn(4R-OH)]T[Hyp][hTyr(3R-OH)][X2][Pro(3S-OH)]; lactam 1-C) | 1 (≈ 0.967 µM) | 0.5 (≈ 0.483 µM)

Reference: patent US5430018A, “Cyclohexapeptide with basic nitrogen containing alkylamide groups” (priority 1991, dated 1995)
